Experimental findings from patent US12344610B2, “APOL1 inhibitors and methods of use” (Maze Therapeutics, Inc., priority 2022, dated 2025) are described below.

Assay [1] has as its system HEK293 cells overexpressing APOL1 G2. Description: APOL1 G2 HEK293 cell rescue assay (reversal of cell death caused by overexpression of APOL1). It is filed as cell-based. The following applies: Homo sapiens, HEK293, HEK293 overexpressing APOL1 G2; geometric mean of at least 2 assay runs; † = single assay run. A digest of the protocol: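 Each compound tested in duplicate wells on one plate per run, with values usually the geometric mean across at least two runs on different days, occasionally from one run only. Read-out: concentration giving half-maximal rescue of APOL1 G2 overexpression-induced death of HEK293 cells.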

The subject of assay [2] is Trypanosoma brucei Lister 427 VSG221 with APOL1 G2 recombinant protein. In words: APOL1 G2 trypanosome cell rescue assay (Example B5). It is filed as cell-based. The note with it: Trypanosoma brucei, 20 h, read-out: APOL1 G2 Trypanosome Rescue EC50, Trypanosoma brucei Lister 427 VSG221 with APOL1 G2 recombinant protein, 20 hours, CellTiter-Glo; geometric mean of at least 2 assay runs; † = single assay run. A digest of the protocol: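 Luminescent ATP read-out (CellTiter-Glo) of trypanosome viability after 20 h at 37° C. Bloodstream T. brucei Lister 427 VSG221, 250/well in modified HMI-9, were exposed to recombinant mature APOL1 (aa 28-398) from a 2 μg/mL addition, plus compound in 11-point 2-fold series.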
A general note: In ATP-based viability assays light output follows the ATP content of the culture.

By EC50 is commonly meant the concentration at which the effect is half-maximal.

With `CN(c1ccc(OCCN2CCC3(CC2)C(=O)Nc2ccc(C#N)cc23)cc1)S(C)(=O)=O` [Compound 75, N-[4-(2-{5-cyano-2-oxo-1,2-dihydrospiro[indole-3,4′-piperidin]-1′-yl}ethoxy)phenyl]-N-methylmethanesulfonamide], the EC50 in assay [1] came to 114 nM; in assay [2] it was 146 nM.

Take `NC(=O)c1ccc(OCCN2CCC3(CC2)C(=O)Nc2ccc(Cl)cc23)cc1F` [Compound 46, 4-(2-{5-chloro-2-oxo-1,2-dihydrospiro[indole-3,4′-piperidin]-1′-yl}ethoxy)-2-fluorobenzamide]: the EC50 in assay [1] is 72.8 nM; in assay [2] it was 50.5 nM.

For `CC(=O)N1Cc2ccc(OCCN3CCC4(CC3)C(=O)Nc3ccc(Cl)cc34)cc2C1` [Compound 57, 1′-{2-[(2-acetyl-2,3-dihydro-1H-isoindol-5-yl)oxy]ethyl}-5-chloro-1,2-dihydrospiro[indole-3,4′-piperidin]-2-one], the EC50 in assay [1] turned out to be 190 nM; in assay [2], 183 nM.

Turning to `CS(=O)(=O)c1ccc(OCCN2CCC3(CC2)C(=O)Nc2ccc(Cl)cc23)cc1F` [Compound 63, 5-chloro-1′-[2-(3-fluoro-4-methanesulfonylphenoxy)ethyl]-1,2-dihydrospiro[indole-3,4′-piperidin]-2-one], the EC50 in assay [1] was 51.1 nM; in assay [2], 40.9 nM.

Turning to `Cn1ncc2cc(OCCN3CCC4(CC3)C(=O)Nc3ccccc34)ccc21` [Compound 70, 1′-{2-[(1-methyl-1H-indazol-5-yl)oxy]ethyl}-1,2-dihydrospiro[indole-3,4′-piperidin]-2-one], the EC50 in assay [1] stood at 1050 nM; in assay [2], 918 nM.

As for `O=C1CCc2cc(OCCN3CCC4(CC3)C(=O)Nc3ccc(Cl)cc34)cnc2N1[C@H]1C[C@@H](CO)C1` (single isomer, unassigned) [Compound 319, 5-chloro-1′-[2-({7-oxo-8-[(cis)-3-(hydroxymethyl)cyclobutyl]-5,6,7,8-tetrahydro-1,8-naphthyridin-3-yl}oxy)ethyl]-1,2-dihydrospiro[indole-3,4′-piperidin]-2-one], the EC50 in assay [1] stood at 41.9 nM; in assay [2], 27 nM.

Regarding `C[C@]1(O)C[C@@H](N2C(=O)CCc3cc(OCCN4CCC5(CC4)C(=O)Nc4ccc(OC(F)F)cc45)cnc32)C1` [Cmpd 325, 5-(difluoromethoxy)-1′-[2-({7-oxo-8-[(cis)-3-hydroxy-3-methylcyclobutyl]-5,6,7,8-tetrahydro-1,8-naphthyridin-3-yl}oxy)ethyl]-1,2-dihydrospiro[indole-3,4′-piperidin]-2-one], the EC50 worked out at 86.4 nM in assay [1] and 77.5 nM in assay [2].

Regarding `CC(=O)N1CCCc2cc(OCCN3CCC4(CC3)C(=O)N(C)c3ccccc34)ccc21` [Compound 36, 1′-{2-[(1-acetyl-1,2,3,4-tetrahydroquinolin-6-yl)oxy]ethyl}-1-methyl-1,2-dihydrospiro[indole-3,4′-piperidin]-2-one], the EC50 in assay [1] stood at 919 nM; in assay [2] it was 1710 nM.

Regarding `NC(=O)c1ccc(OCCN2CCC3(CC2)C(=O)Nc2ccc(Cl)cc23)cc1` [Compound 45, 4-(2-{5-chloro-2-oxo-1,2-dihydrospiro[indole-3,4′-piperidin]-1′-yl}ethoxy)benzamide], the EC50 in assay [1] worked out at 122 nM; in assay [2], 162 nM.

As for `CS(=O)(=O)c1c(F)cc(OCCN2CCC3(CC2)C(=O)Nc2ccccc23)cc1F` [Compound 42, 1′-[2-(3,5-difluoro-4-methanesulfonylphenoxy)ethyl]-1,2-dihydrospiro[indole-3,4′-piperidin]-2-one], the half-maximal effective concentration (EC50) in assay [1] came out at 343 nM; in assay [2] it was 406 nM.

With `CS(=O)(=O)c1ccc(OCCN2CCC3(CC2)C(=O)Nc2ccc(Cl)cc23)cc1C#N` [Compound 50, 5-(2-{5-chloro-2-oxo-1,2-dihydrospiro[indole-3,4′-piperidin]-1′-yl}ethoxy)-2-methanesulfonylbenzonitrile], the EC50 stood at 24.9 nM in assay [1] and 10.2 nM in assay [2].

As for `CNC(=O)N1CCCc2cc(OCCN3CCC4(CC3)C(=O)Nc3ccc(Cl)cc34)ccc21` [Compound 60, 6-(2-{5-chloro-2-oxo-1,2-dihydrospiro[indole-3,4′-piperidin]-1′-yl}ethoxy)-N-methyl-1,2,3,4-tetrahydroquinoline-1-carboxamide], the EC50 was determined as 62.7 nM in assay [1] and 66 nM in assay [2].

As for `CS(=O)(=O)c1ccc(OCCN2CCC3(CC2)C(=O)Nc2ccc(C#N)cc23)cc1` [Compound 71, 1′-[2-(4-methanesulfonylphenoxy)ethyl]-2-oxo-1,2-dihydrospiro[indole-3,4′-piperidine]-5-carbonitrile], the EC50 in assay [1] stood at 345 nM; in assay [2] it was 205 nM.

Take `CS(=O)(=O)N1CCCc2cc(OCCN3CCC4(CC3)C(=O)Nc3ccc(Cl)cc34)ccc21` [Compound 53, 5-chloro-1′-{2-[(1-methanesulfonyl-1,2,3,4-tetrahydroquinolin-6-yl)oxy]ethyl}-1,2-dihydrospiro[indole-3,4′-piperidin]-2-one]: the values for the EC50 in assay [1] and in assay [2] were 52.9 nM and 47.8 nM, respectively.

Regarding `O=C1Nc2ccccc2C12CCN(CCOc1ccc(S(=O)(=O)C(F)F)cc1)CC2` [Compound 44, 1′-[2-(4-difluoromethanesulfonylphenoxy)ethyl]-1,2-dihydrospiro[indole-3,4′-piperidin]-2-one], the EC50 in assay [1] was determined as 116 nM; in assay [2], 119 nM.

Turning to `C[C@]1(O)C[C@@H](n2cnc3cc(OCCN4CCC5(CC4)C(=O)Nc4ccc(Cl)cc45)cc(C#N)c32)C1` [Compound 439, 5-(2-{5-chloro-2-oxo-1,2-dihydrospiro[indole-3,4′-piperidin]-1′-yl}ethoxy)-1-[(cis)-3-hydroxy-3-methylcyclobutyl]-1H-1,3-benzodiazole-7-carbonitrile], the EC50 came out at 14.9 nM in assay [1] and 20.2 nM in assay [2].

With `CS(=O)(=O)C1(c2ncc(OCCN3CCC4(CC3)C(=O)Nc3ccc(Cl)cc34)cn2)CC1` [Compound 4, 5-chloro-1′-(2-{[2-(1-methanesulfonylcyclopropyl)pyrimidin-5-yl]oxy}ethyl)-1,2-dihydrospiro[indole-3,4′-piperidin]-2-one], the EC50 stood at 71.9 nM in assay [1] and 51.9 nM in assay [2].

In the case of `Cn1ncc2cc(OCCN3CCC4(CC3)C(=O)Nc3ccc(Cl)cc34)ccc21` [Compound 68, 5-chloro-1′-{2-[(1-methyl-1H-indazol-5-yl)oxy]ethyl}-1,2-dihydrospiro[indole-3,4′-piperidin]-2-one], the half-maximal effective concentration (EC50) stood at 148 nM in assay [1] and 115 nM in assay [2].

For `C[C@]1(O)C[C@@H](n2ncc3cc(OCCN4CCC5(CC4)C(=O)Nc4ccc(Cl)cc45)cnc32)C1` (single isomer, unassigned) [Compound 357, 5-chloro-1′-[2-({1-[(cis)-3-hydroxy-3-methylcyclobutyl]-1H-pyrazolo[3,4-b]pyridin-5-yl}oxy)ethyl]-1,2-dihydrospiro[indole-3,4′-piperidin]-2-one], the EC50 in assay [1] was determined as 22.3 nM; in assay [2], 28.1 nM.

In the case of `[2H]C([2H])(Oc1cnc2c(c1)CCC(=O)N2[C@H]1C[C@@](C)(O)C1)C([2H])([2H])N1CCC2(CC1)C(=O)Nc1ccc(Cl)cc12` [Compound 426, 5-chloro-1′-[2-({7-oxo-8-[(cis)-3-hydroxy-3-methylcyclobutyl]-5,6,7,8-tetrahydro-1,8-naphthyridin-3-yl}oxy)(1,1,2,2-^2H4)ethyl]-1,2-dihydrospiro[indole-3,4′-piperidin]-2-one], the EC50 in assay [1] amounted to 37.8 nM; in assay [2], 36.7 nM.
